Source: ChEMBL document CHEMBL1201862, “PubChem BioAssay data set” (2004)
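Cultured in 96-well plates, cells were exposed to test compound for 48 hours across five concentrations. The concentration for 50% growth inhibition is given as GI50.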 Active and inactive are the calls of the source. Cut-off read from the data, not from the text of the source: active = GI50 up to about 1.1 µM and inactive = higher.

Key:
Experiment in all cases: NCI anticancer screen, dose series, 48 h
[1] = tested on: ACHN
[2] = tested on: LOX IMVI
[3] = tested on: Hs-578T
[4] = tested on: HCT-15
[5] = tested on: MOLT-4
[6] = tested on: BT-549
[7] = tested on: OVCAR-5
[8] = tested on: IGROV-1
[9] = tested on: NCI-H23
[10] = tested on: MDA-MB-435
[11] = tested on: UO-31
[12] = tested on: CAKI-1
[13] = tested on: M14
[14] = tested on: U-251
[15] = tested on: HOP-92
[16] = tested on: SK-OV-3
[17] = tested on: RPMI-8226
[18] = tested on: HCC 2998
[19] = tested on: TK-10
[20] = tested on: Malme-3M
[21] = tested on: KM12
[22] = tested on: OVCAR-8
[23] = tested on: NCI-H522
[24] = tested on: CCRF-CEM
[25] = tested on: SW-620
[26] = tested on: A498
[27] = tested on: SK-MEL-5
[28] = tested on: SF-268
[29] = tested on: HCT-116
[30] = tested on: MDA-N
[31] = tested on: SR
[32] = tested on: SNB-19
[33] = tested on: RXF 393
[34] = tested on: EKVX
[35] = tested on: DU-145
[36] = tested on: UACC-62
[37] = tested on: SNB-75
[38] = tested on: A549
[39] = tested on: NCI/ADR-RES
[40] = tested on: PC-3
[41] = tested on: MDA-MB-231
[42] = tested on: 786-0
[43] = tested on: HOP-62
[44] = tested on: OVCAR-3
[45] = tested on: SK-MEL-28
[46] = tested on: SF-539
[47] = tested on: K562
[48] = tested on: T47D
[49] = tested on: SF-295
[50] = tested on: HT-29
[51] = tested on: MCF7
[52] = tested on: HL-60
[53] = tested on: UACC-257
[54] = tested on: SK-MEL-2
[55] = tested on: NCI-H460
[56] = tested on: SN12C
[57] = tested on: COLO 205
[58] = tested on: OVCAR-4
[59] = tested on: NCI-H226

SMILES: COc1ccc(Nc2nc3cc(C(F)(F)F)ccc3n3cccc23)cc1OC
- GI50 [1]: 17.7 µM (inactive)
- GI50 [2]: 4.7 µM (inactive)
- GI50 [3]: 29.2 µM (inactive)
- GI50 [4]: 11.4 µM
- GI50 [5]: 7.85 µM (inactive)
- GI50 [6]: 17.3 µM (inactive)
- GI50 [7]: 18.6 µM (inactive)
- GI50 [8]: 25.5 µM (inactive)
- GI50 [9]: 17.6 µM (inactive)
- GI50 [10]: 15.7 µM (inactive)
- GI50 [11]: 22.8 µM (inactive)
- GI50 [12]: 27.9 µM (inactive)
- GI50 [13]: 14.3 µM (inactive)
- GI50 [14]: 15.2 µM (inactive)
- GI50 [15]: 15.7 µM (inactive)
- GI50 [16]: 27.9 µM (inactive)
- GI50 [17]: 13.6 µM (inactive)
- GI50 [18]: 14 µM (inactive)
- GI50 [19]: 12.6 µM (inactive)
- GI50 [20]: 24.2 µM (inactive)
- GI50 [21]: 10.3 µM (inactive)
- GI50 [22]: 23.3 µM (inactive)
- GI50 [23]: 16 µM (inactive)
- GI50 [24]: 10.7 µM (inactive)
- GI50 [25]: 34.7 µM (inactive)
- GI50 [26]: 14.7 µM (inactive)
- GI50 [27]: 14.5 µM (inactive)
- GI50 [28]: 26.7 µM (inactive)
- GI50 [29]: 12.1 µM (inactive)
- GI50 [30]: 12.6 µM (inactive)
- GI50 [31]: 9.89 µM (inactive)
- GI50 [32]: 19.4 µM (inactive)
- GI50 [33]: 10.8 µM (inactive)
- GI50 [34]: 20.3 µM (inactive)
- GI50 [35]: 20.3 µM (inactive)
- GI50 [36]: 15.5 µM (inactive)
- GI50 [37]: 10.6 µM (inactive)
- GI50 [38]: 14.1 µM (inactive)
- GI50 [39]: 15.6 µM (inactive)
- GI50 [40]: 10.6 µM (inactive)
- GI50 [41]: 17.8 µM (inactive)
- GI50 [42]: 8.15 µM (inactive)
- GI50 [43]: 22.3 µM (inactive)
- GI50 [44]: 20.7 µM (inactive)
- GI50 [45]: 28.2 µM (inactive)
- GI50 [46]: 16.8 µM (inactive)
- GI50 [47]: 9.04 µM (inactive)
- GI50 [48]: 6.37 µM (inactive)
- GI50 [49]: 10.3 µM (inactive)
- GI50 [50]: 8.99 µM (inactive)
- GI50 [51]: 16.6 µM (inactive)
- GI50 [52]: 19.8 µM (inactive)
- GI50 [53]: 17.5 µM (inactive)
- GI50 [54]: 15.5 µM (inactive)
- GI50 [55]: 10.4 µM (inactive)

SMILES: O=C(CCCCCCCCC(=O)N1C(=O)CC(=O)N(c2ccccc2)C1=S)N1C(=O)CC(=O)N(c2ccccc2)C1=S
- GI50 [1]: > 100 µM (inactive)
- GI50 [2]: > 100 µM (inactive)
- GI50 [3]: > 100 µM (inactive)
- GI50 [4]: > 100 µM
- GI50 [5]: > 100 µM (inactive)
- GI50 [6]: > 100 µM (inactive)
- GI50 [7]: > 100 µM (inactive)
- GI50 [9]: > 100 µM (inactive)
- GI50 [10]: > 100 µM (inactive)
- GI50 [11]: > 100 µM (inactive)
- GI50 [12]: > 100 µM (inactive)
- GI50 [13]: > 100 µM (inactive)
- GI50 [14]: > 100 µM (inactive)
- GI50 [56]: > 100 µM (inactive)
- GI50 [15]: > 100 µM (inactive)
- GI50 [16]: > 100 µM (inactive)
- GI50 [17]: > 100 µM (inactive)
- GI50 [57]: > 100 µM (inactive)
- GI50 [18]: > 100 µM (inactive)
- GI50 [19]: > 100 µM (inactive)
- GI50 [20]: > 100 µM (inactive)
- GI50 [21]: > 100 µM (inactive)
- GI50 [22]: > 100 µM (inactive)
- GI50 [23]: > 100 µM (inactive)
- GI50 [24]: > 100 µM (inactive)
- GI50 [26]: > 100 µM (inactive)
- GI50 [27]: > 100 µM (inactive)
- GI50 [28]: > 100 µM (inactive)
- GI50 [29]: > 100 µM (inactive)
- GI50 [30]: > 100 µM (inactive)
- GI50 [31]: > 100 µM (inactive)
- GI50 [32]: > 100 µM (inactive)
- GI50 [33]: > 100 µM (inactive)
- GI50 [34]: > 100 µM (inactive)
- GI50 [35]: > 100 µM (inactive)
- GI50 [36]: > 100 µM (inactive)
- GI50 [37]: > 100 µM (inactive)
- GI50 [38]: > 100 µM (inactive)
- GI50 [39]: > 100 µM (inactive)
- GI50 [40]: > 100 µM (inactive)
- GI50 [41]: > 100 µM (inactive)
- GI50 [42]: > 100 µM (inactive)
- GI50 [43]: > 100 µM (inactive)
- GI50 [44]: > 100 µM (inactive)
- GI50 [48]: > 100 µM (inactive)
- GI50 [58]: > 100 µM (inactive)
- GI50 [49]: > 100 µM (inactive)
- GI50 [50]: > 100 µM (inactive)
- GI50 [51]: > 100 µM (inactive)
- GI50 [53]: > 100 µM (inactive)
- GI50 [54]: > 100 µM (inactive)
- GI50 [55]: > 100 µM (inactive)

SMILES: N/N=C1\C(OC(=O)Nc2ccccc2)=Nc2ccccc21
- GI50 [1]: 15.1 µM (inactive)
- GI50 [2]: 14.5 µM (inactive)
- GI50 [3]: 36.2 µM (inactive)
- GI50 [4]: 26.5 µM
- GI50 [6]: 11.7 µM (inactive)
- GI50 [7]: 45.1 µM (inactive)
- GI50 [8]: 14.8 µM (inactive)
- GI50 [9]: 15.1 µM (inactive)
- GI50 [10]: 14.4 µM (inactive)
- GI50 [11]: 12.7 µM (inactive)
- GI50 [12]: 14.9 µM (inactive)
- GI50 [13]: 13.4 µM (inactive)
- GI50 [14]: 16 µM (inactive)
- GI50 [56]: 19.2 µM (inactive)
- GI50 [15]: 15.2 µM (inactive)
- GI50 [16]: 19.8 µM (inactive)
- GI50 [59]: 16.8 µM (inactive)
- GI50 [17]: 10.3 µM (inactive)
- GI50 [57]: 17.3 µM (inactive)
- GI50 [18]: 15.3 µM (inactive)
- GI50 [19]: 23 µM (inactive)
- GI50 [20]: 13.2 µM (inactive)
- GI50 [21]: 13.1 µM (inactive)
- GI50 [22]: 12.1 µM (inactive)
- GI50 [23]: 13.7 µM (inactive)
- GI50 [25]: 31.9 µM (inactive)
- GI50 [26]: 17.1 µM (inactive)
- GI50 [27]: 14.2 µM (inactive)
- GI50 [28]: 36.1 µM (inactive)
- GI50 [29]: 14.2 µM (inactive)
- GI50 [30]: 19.1 µM (inactive)
- GI50 [31]: 25.6 µM (inactive)
- GI50 [32]: 26.8 µM (inactive)
- GI50 [33]: 15.4 µM (inactive)
- GI50 [34]: 18.2 µM (inactive)
- GI50 [35]: 10.8 µM (inactive)
- GI50 [36]: 14.8 µM (inactive)
- GI50 [37]: 22.8 µM (inactive)
- GI50 [38]: 17 µM (inactive)
- GI50 [39]: 30.3 µM (inactive)
- GI50 [40]: 15.4 µM (inactive)
- GI50 [41]: 18.6 µM (inactive)
- GI50 [42]: 16.4 µM (inactive)
- GI50 [43]: 18.6 µM (inactive)
- GI50 [44]: 11.2 µM (inactive)
- GI50 [45]: 60 µM (inactive)
- GI50 [46]: 15.6 µM (inactive)
- GI50 [47]: 40.3 µM (inactive)
- GI50 [48]: 10.9 µM (inactive)
- GI50 [58]: 12.8 µM (inactive)
- GI50 [49]: 14 µM (inactive)
- GI50 [50]: 30.5 µM (inactive)
- GI50 [51]: 9.93 µM (inactive)
- GI50 [53]: 29.7 µM (inactive)
- GI50 [54]: 19.7 µM (inactive)
- GI50 [55]: 10.9 µM (inactive)

SMILES: O=S(=O)(Nc1nc2ccccc2nc1Nc1cccc2ccccc12)c1ccccc1
- GI50 [1]: 8 µM (inactive)
- GI50 [2]: > 100 µM (inactive)
- GI50 [3]: 21.1 µM (inactive)
- GI50 [6]: 10.4 µM (inactive)
- GI50 [7]: > 100 µM (inactive)
- GI50 [8]: 5.9 µM (inactive)
- GI50 [9]: 5.53 µM (inactive)
- GI50 [10]: > 100 µM (inactive)
- GI50 [11]: 2.43 µM (inactive)
- GI50 [12]: 31.8 µM (inactive)
- GI50 [13]: 62.4 µM (inactive)
- GI50 [14]: 5.52 µM (inactive)
- GI50 [56]: > 100 µM (inactive)
- GI50 [15]: 2.7 µM (inactive)
- GI50 [16]: 19.9 µM (inactive)
- GI50 [59]: 40.6 µM (inactive)
- GI50 [17]: 2.73 µM (inactive)
- GI50 [18]: 2.16 µM (inactive)
- GI50 [19]: 8.93 µM (inactive)
- GI50 [20]: 4.48 µM (inactive)
- GI50 [21]: 5.61 µM (inactive)
- GI50 [22]: 20.7 µM (inactive)
- GI50 [25]: 25.8 µM (inactive)
- GI50 [27]: 10.7 µM (inactive)
- GI50 [28]: 26.5 µM (inactive)
- GI50 [29]: 17.7 µM (inactive)
- GI50 [30]: > 100 µM (inactive)
- GI50 [31]: > 100 µM (inactive)
- GI50 [32]: 20.1 µM (inactive)
- GI50 [33]: 17.5 µM (inactive)
- GI50 [34]: 8.97 µM (inactive)
- GI50 [35]: > 100 µM (inactive)
- GI50 [36]: 8.59 µM (inactive)
- GI50 [37]: 15.5 µM (inactive)
- GI50 [38]: 7.35 µM (inactive)
- GI50 [39]: 13.6 µM (inactive)
- GI50 [40]: 6.46 µM (inactive)
- GI50 [41]: 13.6 µM (inactive)
- GI50 [42]: 17 µM (inactive)
- GI50 [43]: 13.9 µM (inactive)
- GI50 [44]: 4.67 µM (inactive)
- GI50 [45]: 25.9 µM (inactive)
- GI50 [46]: 44.9 µM (inactive)
- GI50 [47]: > 100 µM (inactive)
- GI50 [48]: 5.26 µM (inactive)
- GI50 [58]: 1.24 µM (inactive)
- GI50 [49]: 6.17 µM (inactive)
- GI50 [51]: > 100 µM (inactive)
- GI50 [53]: 39.4 µM (inactive)
- GI50 [54]: 18.9 µM (inactive)
- GI50 [55]: 4.41 µM (inactive)
